# Measured values: US20020082273A1, “Agents for use in the treatment of alzheimer's disease” (priority 1998, published 2002)
# Marks after values point to notes of the source that are not given here.
# Experiments:
# [1] = tested on: Aβ; test: Effect of agents on Cu^2+-induced SDS-resistant Aβ polymerization; type: biochemical, human
# Description: Cu^2+-induced SDS-resistant oligomerization of Aβ: Aβ (2.5 μM), 150 mM NaCl, 20 mM hepes (pH 6.6, 7.4, 9) with or without ZnCl2 or CuCl2. Following incubation (37° C.), aliquots of each reaction (2 ng peptide) were collected at 0 d, 1 d, 3 d and 5 d and western blotted using anti-Aβ monoclonal antibody 8E10 (FIG. 9). Migration of the molecular size markers are indicated (kDa). […] Cu^2+ (2-30 μM) induced SDS-resistant polymerization of peptide. […] It should be noted that other means of visualizing and/or determining the presence or absence of polymerization other than western blot analysis may be used. Such other means include but are not limited to density sedimentation by centrifugation of the samples.
# It is possible that the decreased polymerization may be due to chelation of Cu^2+ by BC, however given the low binding affinity of BC for Cu^2+ compared with Aβ, it seems likely that the chelation of Cu^+ by BC prevents it from inducing SDS-resistant Ad polymerization. Therefore, Aβ may undergo a hydroxyl radical modification that promotes its assembly into SDS-resistant polymers.
# [2] = tested on: Aβ deposits of AD-affected brain; test: Extraction (solubilization) of Aβ from post-mortem AD brain tissue homogenates, western blot densitometry; type: biochemical, human; conditions: for Effect of Chelators upon extraction of Aβ (% change from control): mean n = 6 AD brain samples, above PBS extraction alone
# Description: Identical regions of frontal cortex (0.5 g) from post-mortem brains of individuals with AD, as well as non-AD conditions, were homogenized in TBS, […] ±metal chelators.
# 0.5 g of prefrontal cortex was dissected and homogenized in PBS ±chelator as indicated. The homogenate was then centrifuged (100,000 g) and the supernatant removed, and a sample taken for western blot assay using anti-Aβ specific antibodies after Tricine PAGE. Densitometry was performed against synthetic peptide standards.
# Densitometry of Aβ western blots (FIGS. 19A-19C) was performed for a series of 6 AD brain samples homogenized in the presence of chelators as indicated.
# Next the ability of clioquinol to extract Aβ deposits from human brain was examined. […] Fragments of prefrontal cortex from individual post-mortem samples with the histopathological diagnosis of AD were homogenized in PBS, pH 7.4, and then pelleted after centrifugation. The pellets were then washed with agitation twice for 30 minutes, 4° C., with PBS or PBS containing clioquinol (100% =0.8 μM clioquinol). The suspension was then pelleted (10,000 g for 30 minutes) and the supernatant removed (S1) for western blot analysis using Aβ-specific antibodies (illustrated). The pellet was treated a second time in this experiment with agitation and centrifugation, and the second supernatant (S2) analysed.
# Soluble Aβ (ng/g tissue) was determined as described. Total Aβ was determined following formic acid extraction of otherwise untreated tissue.
# (§1) Suitable quantities of gray matter from each subject were minced to serve as pools of homogenous tissue. […] To obtain the soluble fraction, the homogenates were centrifuged at 100,000× g for 30 min (Beckman J180, Beckman instruments, Fullerton, California) and the supernatant collected in 1 ml aliquots and stored on ice or immediately frozen at −70° C. In each experiment, all protein was precipitated from 1 ml of supernatant from each treatment group using 1:5 ice cold 10% trichloracetic acid and pelleted in a bench top microfuge (Heraeus, Osteroder, Germany) at 10,000× g. The remaining pellet was frozen at −70° C.
# Precipitated protein was subjected to SDS polyacrylamide gel electrophoresis (SDS-PAGE) on Novex pre-cast 10-20% Tris-Tricine gels followed by Western transfer onto 0.2 μm nitrocellulose membrane (Biorad, Hercules, Calif.). […] Each gel included two or more lanes containing known quantities of synthetic Aβ which served as internal reference standards. Blot images were captured by a Relisys scanner with transparency adapter (Teco Information Systems, Taiwan, ROC) and densitometry conducted using the NIH Image 1.6 program (National Institutes for Health, USA. Modified for PC by Scion Corporation, Frederick, Md.), calibrated using a step diffusion chart. For quantitation of Aβ in brain extracts, the internal reference standards of synthetic Aβ were utilized to produce standard curves from which values were interpolated.
# [3] = tested on: Aβ deposits of age-matched control brain; test: Extraction of Aβ from age-matched non-AD control brain tissue; type: biochemical, human; conditions: chelator 2 mM
# Description: as §1
# Precipitated protein was subjected to SDS polyacrylamide gel electrophoresis (SDS-PAGE) on Novex pre-cast 10-20% Tris-Tricine gels followed by Western transfer onto 0.2 μm nitrocellulose membrane (Biorad, Hercules, Calif.). Aβ was detected using the WO2, G210 or G211 monoclonal antibodies (Ida, N., et al., J. Biol. Chem., 271:22908 (1996)) in combination with HRP-conjugated rabbit anti-mouse IgG (Dako, Denmark), and visualized using chemiluminescence (ECL, Amersham Life Science, Little Chalfont, Buckinghamshire, UK). Each gel included two or more lanes containing known quantities of synthetic Aβ which served as internal reference standards. Blot images were captured by a Relisys scanner with transparency adapter (Teco Information Systems, Taiwan, ROC) and densitometry conducted using the NIH Image 1.6 program (National Institutes for Health, USA. Modified for PC by Scion Corporation, Frederick, Md.), calibrated using a step diffusion chart. For quantitation of Aβ in brain extracts, the internal reference standards of synthetic Aβ were utilized to produce standard curves from which values were interpolated.
# [4] = Residual metals in post-centrifugation pellets of brain homogenates (ICP-AES); type: biochemical, human; set-up: Residual Metal Levels, Mg: unit not given here; conditions: for Residual Al in extracted pellet / Residual Ca in extracted pellet / Residual Cu in extracted pellet / Residual Fe in extracted pellet / Residual Mg in extracted pellet / Residual Zn in extracted pellet: Table 6
# [5] = cited from earlier work
# [6] = cited from earlier work; remark: listed apart in the source
# [7] = Table 1; K=[ML]/[M][L]; cited from earlier work
# [8] = cited from earlier work; remark: listed apart in the source
# [9] = cited from earlier work; remark: listed apart in the source
# [10] = Table 1; K=[ML]/[M][L]; cited from earlier work; remark: listed apart in the source
# [11] = Table 1; K=[ML]/[M][L]; cited from earlier work; remark: listed apart in the source
# [12] = Table 3, TPEN 0.1 mM, AD (n=6) and healthy controls (n=4)
# [13] = Table 7, 10 AD specimens, 0.1 mM TPEN
smiles,measurement,setting,value
"Cl.O=C(O)CCP(CCC(=O)O)CCC(=O)O [TCEP, Tris(2-Carboxyethyl)-Phosphine Hydrochloride]",effect on Cu^2+-induced SDS-resistant Aβ polymerization,[1],significantly reduced the level of polymerization
"c1ccc(CN(CCN(Cc2ccccn2)Cc2ccccn2)Cc2ccccn2)nc1 [TPEN, N,N,N′,N′-tetrakis [2-pyridyl-methyl] ethylenediamine]",Effect of Chelators upon extraction of Aβ (% change from control),[2]; 0.1 mM chelator,182%
same,Effect of Chelators upon extraction of Aβ (% change from control),[2]; 2.0 mM chelator,241%
same,mean increase of Aβ solubilization over PBS alone,"[2]; 6 AD brains, 0.1 or 2.0 mM",around 2 fold
same,Extractable Aβ,"[2]; AD subject 1, chelator 2 mM",0.21 µg/g
same,Extractable Aβ (% of total),"[2]; AD subject 1, chelator 2 mM",(0.2) %
same,Extractable Aβ,"[2]; AD subject 2, chelator 2 mM",3.40 µg/g
same,Extractable Aβ (% of total),"[2]; AD subject 2, chelator 2 mM",(4.4) %
same,Extractable Aβ,"[2]; AD subject 3, chelator 2 mM",1.80 µg/g
same,Extractable Aβ (% of total),"[2]; AD subject 3, chelator 2 mM",(2.25) %
same,Extractable Aβ,"[2]; AD subject 4, chelator 2 mM",5.50 µg/g
same,Extractable Aβ (% of total),"[2]; AD subject 4, chelator 2 mM",(9.2) %
same,Extractable Aβ,"[2]; AD subject 5, chelator 2 mM",5.00 µg/g
same,Extractable Aβ (% of total),"[2]; AD subject 5, chelator 2 mM",(3.5) %
same,Extractable Aβ,"[2]; AD subject 6, chelator 2 mM",0.28 µg/g
same,Extractable Aβ (% of total),"[2]; AD subject 6, chelator 2 mM",(1.75) %
same,"Extractable Aβ (% of total), X (mean)","[2]; AD subjects 1-6, chelator 2 mM",(4.6) %
same,"Extractable Aβ, X (mean)","[2]; AD subjects 1-6, chelator 2 mM",2.73 µg/g
same,X C/PBS (mean chelator / PBS),"[2]; AD tissue, chelator 2 mM",2.60
same,efficiency in extracting Aβ,"[2]; neutral saline buffer, TPEN 5 μM",highly efficient
same,Extractable Aβ,[3]; AC subject 1,0.22 µg/g
same,Extractable Aβ (% of total),[3]; AC subject 1,(32.0) %
same,Extractable Aβ,[3]; AC subject 2,0.38 µg/g
same,Extractable Aβ (% of total),[3]; AC subject 2,(9.0) %
same,Extractable Aβ,[3]; AC subject 3,0.26 µg/g
same,Extractable Aβ (% of total),[3]; AC subject 3,(9.7) %
same,Extractable Aβ,[3]; AC subject 4,0.09 µg/g
same,Extractable Aβ (% of total),[3]; AC subject 4,(3.0) %
same,Extractable Aβ,[3]; AC subject 5,1.06 µg/g
same,Extractable Aβ (% of total),[3]; AC subject 5,(29.5) %
same,"Extractable Aβ (% of total), X (mean)",[3]; AC subjects 1-5,(16.7) %
same,"Extractable Aβ, X (mean)",[3]; AC subjects 1-5,0.40 µg/g
same,X C/PBS (mean chelator / PBS),[3]; age-matched control tissue,1.6
same,Residual Al in pellet,[4]; [12],65 mg/kg
same,Residual Ca in pellet,[4]; [12],(210) mg/kg
same,Residual Cu in pellet,[4]; [12],9.8 mg/kg
same,Residual Fe in pellet,[4]; [12],239 mg/kg
same,Residual Mg in pellet,[4]; [12],230 mg/kg
same,Residual Zn in pellet,[4]; [12],33.2* mg/kg
same,Residual Al in extracted pellet,[4]; chelator 0.001 mM,34 mg/kg
same,Residual Ca in extracted pellet,[4]; chelator 0.001 mM,490 mg/kg
same,Residual Cu in extracted pellet,[4]; chelator 0.001 mM,12 mg/kg
same,Residual Fe in extracted pellet,[4]; chelator 0.001 mM,512 mg/kg
same,Residual Mg in extracted pellet,[4]; chelator 0.001 mM,192 mg/kg
same,Residual Zn in extracted pellet,[4]; chelator 0.001 mM,42 mg/kg
same,Residual Al in extracted pellet,[4]; chelator 0.004 mM,22 mg/kg
same,Residual Ca in extracted pellet,[4]; chelator 0.004 mM,322 mg/kg
same,Residual Cu in extracted pellet,[4]; chelator 0.004 mM,10 mg/kg
same,Residual Fe in extracted pellet,[4]; chelator 0.004 mM,317 mg/kg
same,Residual Mg in extracted pellet,[4]; chelator 0.004 mM,147 mg/kg
same,Residual Zn in extracted pellet,[4]; chelator 0.004 mM,28 mg/kg
same,Residual Al in extracted pellet,[4]; chelator 0.04 mM,22 mg/kg
same,Residual Ca in extracted pellet,[4]; chelator 0.04 mM,956 mg/kg
same,Residual Cu in extracted pellet,[4]; chelator 0.04 mM,10 mg/kg
same,Residual Fe in extracted pellet,[4]; chelator 0.04 mM,322 mg/kg
same,Residual Mg in extracted pellet,[4]; chelator 0.04 mM,201 mg/kg
same,Residual Zn in extracted pellet,[4]; chelator 0.04 mM,22 mg/kg
same,Residual Al in extracted pellet,[4]; chelator 0.1 mM,60 mg/kg
same,Residual Ca in extracted pellet,[4]; chelator 0.1 mM,708 mg/kg
same,Residual Cu in extracted pellet,[4]; chelator 0.1 mM,12 mg/kg
same,Residual Fe in extracted pellet,[4]; chelator 0.1 mM,389 mg/kg
same,Residual Mg in extracted pellet,[4]; chelator 0.1 mM,200 mg/kg
same,Residual Zn in extracted pellet,[4]; chelator 0.1 mM,21 mg/kg
same,Residual Al in extracted pellet,[4]; chelator 2.0 mM,148 mg/kg
same,Residual Ca in extracted pellet,[4]; chelator 2.0 mM,419 mg/kg
same,Residual Cu in extracted pellet,[4]; chelator 2.0 mM,11 mg/kg
same,Residual Fe in extracted pellet,[4]; chelator 2.0 mM,376 mg/kg
same,Residual Mg in extracted pellet,[4]; chelator 2.0 mM,200 mg/kg
same,Residual Zn in extracted pellet,[4]; chelator 2.0 mM,19 mg/kg
same,Residual Al in extracted pellet,[4]; chelator 5.0 mM,16 mg/kg
same,Residual Ca in extracted pellet,[4]; chelator 5.0 mM,377 mg/kg
same,Residual Cu in extracted pellet,[4]; chelator 5.0 mM,10 mg/kg
same,Residual Fe in extracted pellet,[4]; chelator 5.0 mM,307 mg/kg
same,Residual Mg in extracted pellet,[4]; chelator 5.0 mM,205 mg/kg
same,Residual Zn in extracted pellet,[4]; chelator 5.0 mM,17 mg/kg
same,"Residual Metal Levels, Al",[4]; [13],65
same,"Residual Metal Levels, Ca",[4]; [13],210
same,"Residual Metal Levels, Cu",[4]; [13],9.8
same,"Residual Metal Levels, Fe",[4]; [13],239
same,"Residual Metal Levels, Mg",[4]; [13],230
same,"Residual Metal Levels, Zn",[4]; [13],33.2
same,"LogK, Ca","[5]; Table 1, K=[ML]/[M][L]",3.0
same,"Stability constant logK10, Ca","[5]; Table 5, NIST database",3
same,"LogK, Cu","[6]; Table 1, K=[ML]/[M][L]",20.2
same,"Stability constant logK10, Cu","[6]; Table 5, NIST database",20.2
same,"LogK, Mg",[7],0
same,"LogK, Fe","[8]; Table 1, K=[ML]/[M][L]",14.4
same,"Stability constant logK10, Fe","[8]; Table 5, NIST database",14.4
same,"LogK, Zn","[9]; Table 1, K=[ML]/[M][L]",15.4
same,"Stability constant logK10, Zn","[9]; Table 5, NIST database",15.4
same,"LogK, Al",[10],0
same,"LogK, Co",[11],0
O=S([O-])S(=O)(=O)[O-].[Na+].[Na+] [sodium metabisulfite],effect on Cu^2+-induced SDS-resistant Aβ polymerization,[1],moderately attenuates
